These results are taken from patent publication US20230052189A1, “TREATMENT OF PRIMARY BILIARY CHOLANGITIS WITH ELAFIBRANOR” (Genfit, priority 2020, published 2023).

One data set has as its system patients with PBC. The following applies: Nevens et al. 2016; cited from earlier work.
In data set [1] the test system is subjects with PBC. As to the kind of experiment: Phase 2 double-blind placebo-controlled study: change from baseline in serum ALP. It counts as in vivo, human. Particulars: for treatment effect estimate vs placebo, relative change in serum ALP (supportive analysis): ANCOVA with baseline ALP as covariate; for treatment effect estimate vs placebo, relative change in serum ALP (primary analysis): non-parametric randomization-based ANCOVA with baseline ALP as covariate, p<0.001; for mean relative change (%) from baseline to Endpoint in serum ALP: 12-week treatment, placebo 3.2%. The method, then:
(§1) The study was a Phase 2, double-blind, randomized, parallel group, placebo-controlled study, designed to evaluate the efficacy and safety of elafibranor at doses of 80 mg or 120 mg daily vs placebo in an adult PBC population. This study projected to randomize approximately 45 subjects to 3 treatment groups in a 1:1:1 ratio (elafibranor 80 mg, elafibranor 120 mg, or placebo).
(§2) Subject participation was planned to be a maximum of 20 weeks. The study was comprised of 3 periods: a Screening Period, a Treatment Period, and a Follow-up Period. The Screening Period (Week −4 to Week −1) preceded the 12-week double-blind Treatment Period.
A decrease in ALP levels is recognized as a particularly relevant surrogate marker for the treatment of PBC. Consequently the primary endpoint of the study is to evaluate the efficacy of elafibranor 80 mg or 120 mg with respect to relative change from baseline in serum ALP levels compared to placebo.

The subject of data set [2] is subjects with PBC. The data set can be described thus: Phase 2 study: pruritus (itching) domain of PBC-40 quality of life questionnaire. It counts as in vivo, human. Particulars: for median absolute change from baseline to Endpoint in the pruritus/itching domain of PBC-40: placebo 0.0; for median relative change from baseline to Endpoint in the pruritus/itching domain of PBC-40: placebo 0%; for mean absolute change from baseline to Endpoint in the pruritus (itching) domain of PBC-40: placebo 2.1. How it is done:
as §1, §2

Data set [3] has as its system subjects with PBC. As to the kind of experiment: Phase 2 study: tolerability and safety (TEAEs, pruritus worsening). The class given is in vivo, human. Particulars: for percentage of subjects reporting TEAEs (Treatment-Emergent Adverse Events): placebo 80.0%. The method, then: as §1, §2
The tolerability and safety of once-per-day oral administration of elafibranor in 80-mg and 120-mg doses in subjects with PBC was assessed as follows: • Physical examination • Vital signs • Medical history • ECG • Hematological parameters • Liver markers • Other biochemical safety parameters

In data set [4] the test system is subjects with PBC. As to the kind of experiment: Phase 2 study: change from baseline in pruritus visual analogue scale (VAS). The class given is in vivo, human. The following applies: for median relative change from baseline to Endpoint in the pruritus VAS: placebo −7.1%. The method, then:
as §1, §2
Considering that pruritus is a preeminent adverse event in subjects with PBC, assessment of pruritus was also considered. More specifically, the change from baseline in pruritus (through 5D-itch scale (measuring the degree, duration, direction [improvement or worsening], disability [effect on daily activities], and distribution of itching) and visual analogue scale for pruritus (VAS).
The 5D-itch scale is a reliable, multidimensional measure of itching that has been validated in patients with chronic pruritus to detect changes over time (Elman S, et al., The 5-D itch scale: a new measure of pruritus. Br J Dermatol. 2010; 162(3):587-593.). The VAS is a reliable and validated method of pruritus assessment (Reich A, et al., Visual analogue scale: evaluation of the instrument for the assessment of pruritus. Acta Derm Venereol.2012; 92(5):497-501).
Pruritus scoring values and absolute changes from baseline are provided for each domain of the 5D-itch scale (duration, degree, direction, disability, and distribution) and for the VAS by subject and by visit; baseline and Endpoint values are flagged in this listing; total scores at each visit are also summarized in this listing.

The mark [5] stands for this setting: 80 mg and 120 mg treatment groups.

With `CC[C@H]1[C@@H](O)[C@@H]2[C@H](CC[C@]3(C)[C@@H]([C@H](C)CCC(=O)O)CC[C@@H]23)[C@@]2(C)CC[C@@H](O)C[C@@H]12` [OCA, obeticholic acid], the pruritus adverse event result in the data set on patients with PBC is reported as “severe pruritus has been reported”.
On to `CSc1ccc(C(=O)C=Cc2cc(C)c(OC(C)(C)C(=O)O)c(C)c2)cc1` [elafibranor, 2-(2,6-dimethyl-4-{3-[4-(methylsulfanyl)phenyl]-3-oxopropen-1-yl}phenoxy)-2-methylpropanoic acid], for which the “change from baseline in serum ALP vs placebo at Endpoint (significance)” value in the data set with subjects with PBC [1] (setting [5]) is listed as “statistically significantly different from placebo”. In addition, the “mean ALP values from baseline through Week 12 (trend)” value in the data set with subjects with PBC [1] (80 mg and 120 mg treatment groups, 12 week study) is “declining mean ALP values”. Moreover, the “treatment effect estimate vs placebo, relative change in serum ALP (supportive analysis)” value with subjects with PBC [1] (80 mg, 95% CI [−63.3, −39.5]) was −51.4%; in the data set on subjects with PBC [1] (120 mg, 95% CI [−55.8, −31.9]) it was −43.9%. Further, the “treatment effect estimate vs placebo, relative change in serum ALP (primary analysis)” value in the data set with subjects with PBC [1] (80 mg, 95% CI [−62.5, −41.5]) is reported as −52.0%; in the data set with subjects with PBC [1] (120 mg, 95% CI [−55.7, −32.1]) it was −43.9%. Also, the “mean relative change (%) from baseline to Endpoint in serum ALP” value is −48.3% with subjects with PBC [1] (elafibranor 80 mg daily oral) and −40.6% with subjects with PBC [1] (elafibranor 120 mg daily oral). Moreover, the “median absolute change from baseline to Endpoint in the pruritus/itching domain of PBC-40” value with subjects with PBC [2] (80 mg) and in the data set on subjects with PBC [2] (120 mg) was −1.0 each time. In addition, the “median relative change from baseline to Endpoint in the pruritus/itching domain of PBC-40” value in the data set with subjects with PBC [2] (80 mg) was −25.0%; with subjects with PBC [2] (120 mg), −20.8%. Moreover, the “mean absolute change from baseline to Endpoint in the pruritus (itching) domain of PBC-40” value is reported as −0.9 in the data set with subjects with PBC [2] (80 mg) and −4.1 in the data set on subjects with PBC [2] (120 mg). The “safety and tolerability in patients” value in the data set on subjects with PBC [3] (80 mg and 120 mg) is “safe and well-tolerated”. The worsening of pruritus result with subjects with PBC [3] (80 mg and 120 mg) is on record as “no worsening of pruritus”. Also, the “percentage of subjects reporting TEAEs (Treatment-Emergent Adverse Events)” value was found to be 80.0% with subjects with PBC [3] (80 mg) and 86.7% with subjects with PBC [3] (120 mg). Moreover, in the data set with subjects with PBC [4] (setting [5]), the “median pruritus VAS from baseline through Week 12 (trend)” value is reported as “declining median VAS as early as Week 2”. The results for the “median relative change from baseline to Endpoint in the pruritus VAS” value in the data set with subjects with PBC [4] (80 mg) and in the data set with subjects with PBC [4] (120 mg) were −23.7% and −49.5%, respectively.
